Reference: PMC8262977, “A Dual-Specificity Inhibitor Targets Polyphosphate Kinase 1 and 2 Enzymes To Attenuate Virulence of Pseudomonas aeruginosa” (mBio, 2021)

How the values were obtained:
P. aeruginosa PA14 [1] = assay: Pyoverdine quantification (absorbance at 403 nm); type: cell-based, Pseudomonas aeruginosa
Protocol: Fifty-milliliter P. aeruginosa cultures in 2.5% (wt/vol) LB (Miller; Bioshop) were grown to stationary phase in 125-ml Erlenmeyer flasks with 180-rpm shaking at 37°C for 18 h. Cultures were centrifuged at 18,000 rpm for 30 min to clarify the supernatant, which was then filter sterilized. Pyoverdine was quantified spectrophotometrically at 403 nm as described previously ([55]). Pyocyanin was extracted via chloroform and treated with HCl to yield a red product that was quantified at 520 nm ([55]). To account for any colorimetric interference by inhibitors, cell-free blank readings were subtracted from each sample.

P. aeruginosa [2] = assay: Bacterial CFU accumulation in the C. elegans gut; type: in vivo, Caenorhabditis elegans
Protocol: Wild-type N2 C. elegans and the glp-4 conditionally sterile mutant strain were obtained from the Caenorhabditis Genetics Center. Liquid killing assays were conducted using glp-4 mutant worms as described previously ([35]), with the exception of survival being scored manually under a Zeiss light microscope instead of via Sytox Orange staining. Nematodes were scored as dead when they no longer moved when tapped. Solid killing was conducted using glp-4 as described previously ([34]), with the indicated concentration of inhibitor impregnated into the SK agar. Bacterial CFU accumulation in WT N2 worms was quantified as described previously ([56]). Briefly, age-synchronized embryos were spotted onto bacterium-seeded nematode growth medium (NGM) agar plates impregnated with inhibitor or DMSO. Embryos were incubated at 25°C for 3 days, after which point adult worms were harvested, washed, lysed, and enumerated for CFU.

human protein kinases = assay: Counterscreen against human protein kinases, [33P]ATP filter-binding assay; type: biochemical; settings: 10 μM gallein, array of divergent human kinases
Protocol: Toxicity is always a major concern with kinase inhibitors, even though the absence of PPK homologues in mammals makes these enzymes particularly attractive therapeutic targets ([1], [11]). Cytotoxicity of the inhibitors was therefore assessed in cultured human embryonic kidney (HEK) […] cells via standard trypan blue viability assays ([36]). While the initial hit RT1 reduced cell viability by ∼60%, gallein was noncytotoxic at concentrations up to 100 μM (Fig. 6A). Gallein was also counterscreened against an array of divergent human kinases available at the International Centre for Kinase Profiling (University of Dundee), as described previously ([37]).
FIG 6 Gallein avoids off-target toxicity. (A) HEK cell cytotoxicity assay. Viability determined via trypan blue staining following 48 h of incubation with compounds. (B) Counterscreen for inhibition of human protein kinases by 10 μM gallein via radioactive ([^33P]ATP) filter-binding assay performed by the University of Dundee MRC PPU ([26]). (A) ns, P > 0.05; *, P < 0.05 (one-way ANOVA, Tukey’s multiple-comparison test, n = 3).

[3] = mice, 5 to 10 mg/kg of body weight daily for up to 8 weeks; cited from earlier work
P. aeruginosa PA14 [4] = assay: Bacterial growth kinetics (OD600); type: cell-based, Pseudomonas aeruginosa
Text: FIG 3 Gallein phenocopies ppk deletion to attenuate P. aeruginosa swimming motility. (A) Representative image of swimming motility. (B) Quantification of the effects of gallein treatment and ppk gene deletion on swimming motility. (C) PA14 growth kinetics in the presence and absence of gallein in lysogeny broth (equivalent in composition to swim plates, minus the agar). ns, P > 0.05; *, P < 0.05; **, P < 0.01; ***, P < 0.001 (two-way ANOVA, Tukey’s multiple-comparison test, n = 3). All data points are the average from triplicates; error bars are ±standard deviation.
Supplementary file : FIG S4 Growth curves of P. aeruginosa WT and ΔpolyP in M63 biofilm medium (A) and liquid killing C. elegans assay medium (B). Gallein, or an equivalent volume of DMSO, was added to a 100 μM final concentration. OD600 monitored in triplicate cultures grown in 96-well plates at 37°C following colony inoculation. Error bars ± standard deviation. Download FIG S4, TIF file, 2.5 MB.

P. aeruginosa PPK1 = molecular target: T1, P. aeruginosa PPK1 (Pseudomonas aeruginosa, UniProt P0DP44); assay: PPK1 polyP synthesis from ATP, toluidine blue detection; type: biochemical
T1 construct: His tag (cleaved yes); made in house
Protocol: Compounds were synthesized as outlined in Text S1. Compounds were dissolved in DMSO to make 10 mM stocks and added to a 200 μM final concentration for initial screening. The screen for PPK1 inhibitors was conducted by measuring polyP synthesis activity as described previously ([12]), with the exception of the polyP detection method (see Text S1). […] One-hundred-microliter reaction mixtures were incubated at 37°C for 30 min, after which time 50-μl aliquots were withdrawn and added to 1,000 μl of 6-mg/liter toluidine blue dissolved in 40 mM acetic acid to quench the reaction and quantify polyP ([27]). The A630/530 nm ratio was then recorded, and the values obtained were corrected by subtracting the corresponding blanks (all ingredients except enzyme). The amount of polyP synthesized was calculated using a standard curve (Fig. S1A). Any compounds showing 50% or greater reduction in activity relative to the DMSO control were subjected to further IC50 analysis.
All IC50 and kinetic assay mixtures contained equimolar amounts (275 nM) of PPK to ensure valid comparison between different enzymes. PolyP synthesis activity (for PPK1 and PPK2B) was assayed using the reaction buffer and conditions described above. ATP concentration was varied as indicated for kinetic experiments. Curves were fit using GraphPad Prism V9.

P. aeruginosa [5] = assay: Antibiotic synergy in the C. elegans LK model; type: in vivo, Caenorhabditis elegans; settings: for protection of C. elegans in combination with antibiotic: LK assay
Protocol: Assessment of antibiotic synergy in the C. elegans model was adapted from previously described protocols ([25]). Briefly, glp-4 C. elegans worms were incubated at 25°C with P. aeruginosa and the indicated amount of gallein or DMSO in LK medium as described above. After 24 h, antibiotics were added. After another 24 h, C. elegans survival was scored as described above.

P. aeruginosa [6] = assay: microbe, parasite or virus in culture; type: cell-based, Pseudomonas aeruginosa; settings: 100 μM gallein, LK medium
[7] = WT: DMSO control vs 100 µM gallein

T1 sequence (P0DP44 whole entry): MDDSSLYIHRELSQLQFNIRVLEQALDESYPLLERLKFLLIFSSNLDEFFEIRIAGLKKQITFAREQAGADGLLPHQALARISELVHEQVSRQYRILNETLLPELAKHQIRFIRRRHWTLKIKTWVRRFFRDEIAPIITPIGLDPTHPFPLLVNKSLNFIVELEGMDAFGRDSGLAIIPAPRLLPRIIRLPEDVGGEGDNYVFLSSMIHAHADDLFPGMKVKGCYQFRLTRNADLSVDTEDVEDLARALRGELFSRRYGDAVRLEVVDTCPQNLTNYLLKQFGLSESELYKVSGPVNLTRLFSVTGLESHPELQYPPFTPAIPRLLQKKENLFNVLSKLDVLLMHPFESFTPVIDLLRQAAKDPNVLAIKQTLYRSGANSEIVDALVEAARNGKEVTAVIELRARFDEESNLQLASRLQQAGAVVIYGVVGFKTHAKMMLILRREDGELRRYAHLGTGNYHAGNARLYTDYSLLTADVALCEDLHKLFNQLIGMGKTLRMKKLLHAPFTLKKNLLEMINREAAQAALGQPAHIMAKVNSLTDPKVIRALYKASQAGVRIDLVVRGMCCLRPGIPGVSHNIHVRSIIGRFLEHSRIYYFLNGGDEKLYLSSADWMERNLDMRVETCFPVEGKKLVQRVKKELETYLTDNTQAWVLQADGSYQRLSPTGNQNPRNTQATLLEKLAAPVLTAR

O=C1OC2(c3ccccc31)c1ccc(O)c(O)c1Oc1c2ccc(O)c1O [RT4 (gallein), gallein]
pyoverdine production (P. aeruginosa PA14 [1]; WT, Δppk1 and Δppk2 strains): reproduced the marked pyoverdine and pyocyanin defects observed in the ΔpolyP strain
Pyoverdine, Mean Diff. (P. aeruginosa PA14 [1]; [7]): 38.33
pyoverdine production (P. aeruginosa PA14 [1]; ΔpolyP strain): no significant decrease of either toxin
Pyoverdine, Mean Diff. (P. aeruginosa PA14 [1]; Δppk1, 2a, 2b, 2c: DMSO control vs 100 µM gallein): -3.233
Pyoverdine, Mean Diff. (P. aeruginosa PA14 [1]; Δppk1: DMSO control vs 100 µM gallein): 17.13
Pyoverdine, Mean Diff. (P. aeruginosa PA14 [1]; Δppk2a, 2b, 2c: DMSO control vs 100 µM gallein): 45.33
bacterial accumulation in the nematode gut (P. aeruginosa [2]; WT strain): reduced bacterial accumulation in the nematode gut
C. elegans accumulation CFU, Mean Diff. (P. aeruginosa [2]; [7]): 783.3
bacterial accumulation in the nematode gut (CFU) (P. aeruginosa [2]; ΔpolyP strain): no additional decrease in CFU
bacterial accumulation in the nematode gut (P. aeruginosa [2]; Δppk1 strain): further reduced bacterial accumulation
C. elegans accumulation CFU, Mean Diff. (P. aeruginosa [2]; ∆polyP: DMSO control vs 100 µM gallein): -33.33
C. elegans accumulation CFU, Mean Diff. (P. aeruginosa [2]; ∆ppk1: DMSO control vs 100 µM gallein): 446.7
loss of activity of human kinases (human protein kinases): ≤ 25%
adverse effects [3]: no adverse effects
growth kinetics (P. aeruginosa PA14 [4]; LK conditions, 100 μM): near-WT growth kinetics
planktonic growth rate (P. aeruginosa PA14 [4]; biofilm assay conditions (M63 medium), 100 μM): did not affect the planktonic growth rate
bacterial growth kinetics (P. aeruginosa PA14 [4]; lysogeny broth): did not affect bacterial growth kinetics
PPK1 activity in the absence of ATP regeneration (P. aeruginosa PPK1; no creatine kinase/creatine phosphate, low-micromolar gallein): reduced both PPK1 activity rate and equilibrium polyP levels
IC50 (P. aeruginosa PPK1; polyP synthesis from ATP, 275 nM enzyme): 17 ± 1 µM
C. elegans antibiotic synergy, Mean Diff. (P. aeruginosa [5]; Cipro (0.75 µg/mL) DMSO vs Cipro (0.75 µg/mL) + 100 µM gallein): -47.1
protection of C. elegans in combination with antibiotic (P. aeruginosa [5]; in combination with ciprofloxacin): achieved greater protection of C. elegans than did gallein or antibiotics alone
protection of C. elegans in combination with antibiotic (P. aeruginosa [5]; in combination with tetracycline): achieved greater protection of C. elegans than did gallein or antibiotics alone
C. elegans antibiotic synergy, Mean Diff. (P. aeruginosa [5]; No antibiotic DMSO vs Cipro (0.75 µg/mL) + 100 µM gallein): -35.08
C. elegans antibiotic synergy, Mean Diff. (P. aeruginosa [5]; No antibiotic DMSO vs No antibiotic + 100 µM gallein): -16.19
C. elegans antibiotic synergy, Mean Diff. (P. aeruginosa [5]; No antibiotic DMSO vs Tet (10 µg/mL) + 100 µM gallein): -38.97
C. elegans antibiotic synergy, Mean Diff. (P. aeruginosa [5]; Tet (10 µg/mL) DMSO vs Tet (10 µg/mL) + 100 µM gallein): -49.51
effect on the MIC of tetracycline or ciprofloxacin (P. aeruginosa [6]): did not alter the MIC
